Experimental data: patent US11524966B1 (Valo Early Discovery, Inc., priority 2017, dated 2022)
pIC50: −log10 of the molar value.

Target: T1, USP28 (His-tagged USP28-FL-mammalian) (Homo sapiens, UniProt Q96RU2)
T1 construct: Expression of USP28 (1-1077)-TEV-6*His (pTT5 vector); made in house; host or cells: Expi293f cells (pTT5 vector)
T1 sequence (Q96RU2 1-1077): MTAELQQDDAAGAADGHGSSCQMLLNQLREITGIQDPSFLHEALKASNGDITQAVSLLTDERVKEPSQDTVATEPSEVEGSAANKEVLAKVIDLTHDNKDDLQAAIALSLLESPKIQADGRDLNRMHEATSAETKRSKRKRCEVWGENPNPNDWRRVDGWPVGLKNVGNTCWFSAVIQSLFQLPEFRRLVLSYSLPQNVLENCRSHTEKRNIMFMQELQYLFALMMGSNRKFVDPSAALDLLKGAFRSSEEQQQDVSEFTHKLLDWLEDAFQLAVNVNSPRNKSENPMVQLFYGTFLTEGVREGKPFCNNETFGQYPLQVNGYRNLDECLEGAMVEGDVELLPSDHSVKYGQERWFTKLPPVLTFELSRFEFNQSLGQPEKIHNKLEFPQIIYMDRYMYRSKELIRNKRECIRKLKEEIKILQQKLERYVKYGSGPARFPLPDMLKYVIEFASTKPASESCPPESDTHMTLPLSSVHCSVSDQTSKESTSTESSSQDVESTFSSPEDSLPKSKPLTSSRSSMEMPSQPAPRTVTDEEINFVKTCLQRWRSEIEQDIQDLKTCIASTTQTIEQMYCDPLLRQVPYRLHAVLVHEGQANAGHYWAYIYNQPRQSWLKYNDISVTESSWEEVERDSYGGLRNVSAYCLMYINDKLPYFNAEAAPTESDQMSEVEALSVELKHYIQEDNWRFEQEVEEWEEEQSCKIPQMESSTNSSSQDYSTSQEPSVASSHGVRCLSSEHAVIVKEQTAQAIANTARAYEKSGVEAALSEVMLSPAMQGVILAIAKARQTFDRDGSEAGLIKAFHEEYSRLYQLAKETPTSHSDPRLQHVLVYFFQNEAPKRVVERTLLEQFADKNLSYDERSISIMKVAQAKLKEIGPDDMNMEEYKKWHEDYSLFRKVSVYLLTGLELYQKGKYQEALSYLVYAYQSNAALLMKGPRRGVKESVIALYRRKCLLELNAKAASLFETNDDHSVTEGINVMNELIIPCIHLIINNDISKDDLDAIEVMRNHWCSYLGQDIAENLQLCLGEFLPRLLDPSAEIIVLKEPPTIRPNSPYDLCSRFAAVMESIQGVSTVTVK
Assay: Ubiquitin-Rhodamine 110 Assay for USP28 Activity, Example A-1(a)
Assay type: biochemical
Settings: Ubiquitin-Rhodamine 110 assay, Example A-1(a); read-out: USP28 A-1(a) IC50 range
Procedure, shortened: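 IC50 from 4-parameter logistic fit of percent inhibition versus no-enzyme and DMSO controls; compounds 25 μM to 1.3 nM, 3-fold. Ub-Rh110 cleavage (25 nM, below Km) by […] mammalian-expressed USP28-FL-His ran 45 min at room temperature, stopped with 10 mM citric acid, read ex 485/em 535.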

SMILES	pIC50
COC[C@@H]1CN(c2ccc3c(n2)OC[C@H](NC(=O)c2sc4nc(C)cc(C)c4c2N)C3)C[C@@H]1N [Example 348, 3-amino-N-[(3R)-7-[(3R,4R)-3-amino-4-(methoxymethyl)pyrrolidin-1-yl]-2H,3H,4H-pyrano[2,3-b]pyridin-3-yl]-4,6-dimethylthieno[2,3-b]pyridine-2-carboxamide]	6.70 to 7.30
Cc1cc(C)n2ncc(C(=O)N[C@H]3COc4cc(N5CCNCC5)ccc4C3)c2n1 [Example 463, (R)-5,7-dimethyl-N-(7-(piperazin-1-yl)chroman-3-yl)pyrazolo[1,5-a]pyrimidine-3-carboxamide]	< 5.70
CC(=O)N1CCCc2cc(C(=O)N[C@H]3COc4cc(N5CCNCC5)ccc4C3)ccc21 [Example 459, (R)-1-acetyl-N-(7-(piperazin-1-yl)chroman-3-yl)-1,2,3,4-tetrahydroquinoline-6-carboxamide]	< 5.70
Cc1cnc2c(N)c(C(=O)N[C@H]3CCc4nc(N5C[C@H](N)C6(COC6)C5)ccc4C3)sc2n1 [Example 365, 7-amino-N-[(6S)-2-[(8R)-8-amino-2-oxa-6-azaspiro[3.4]octan-6-yl]-5,6,7,8-tetrahydroquinolin-6-yl]-3-methylthieno[2,3-b]pyrazine-6-carboxamide]	7.30 to 9.00
Cc1ccc2c(N)c(C(=O)N[C@H]3COc4cc(N5C[C@H](N)CC56COC6)ccc4C3)sc2n1 (single isomer, unassigned) [Example 351]	7.30 to 9.00
Cc1ccc2c(N)c(C(=O)N[C@H]3COc4cc(N5CCC(C(=O)O)CC5)ccc4C3)sc2n1 [Example 6-1, (R)-1-(3-(3-Amino-6-methylthieno[2,3-b]pyridine-2-carboxamido)chroman-7-yl)piperidine-4-carboxylic Acid]	5.70 to 6.70
Cc1ccc2c(N)c(C(=O)N[C@H]3COc4cc(N5CCC[C@@](C)(O)C5)ccc4C3)sc2n1 [Example 7-3, 3-amino-N-((R)-7-((R)-3-hydroxy-3-methylpiperidin-l-yl)chroman-3-yl)-6-methylthieno[2,3-b]pyridine-2-carboxamide]	7.30 to 9.00
Cc1ccc2c(N)c(C(=O)N[C@H]3COc4cc(N5C[C@@H](N)[C@H](OC(F)(F)F)C5)ccc4C3)sc2n1 (single isomer, unassigned) [Example 3-9]	6.70 to 7.30
Cc1ccc2c(N)c(C(=O)N[C@H]3CCc4nc(N5C[C@H](C(F)F)[C@@H](N)C5)ccc4C3)sc2n1 [Example 347, 3-amino-N-[(6S)-2-[(3R,4S)-3-amino-4-(difluoromethyl)pyrrolidin-1-yl]-5,6,7,8-tetrahydroquinolin-6-yl]-6-methylthieno[2,3-b]pyridine-2-carboxamide]	6.70 to 7.30
O=C(N[C@H]1COc2cc(N3CC4CCC(C3)N4)ccc2C1)c1cnc2c(c1)[C@H]1C[C@H]1CN2 [Example 3-16, (1aR,7bS)-N-((3R)-7-(3,8-diazabicyclo[3.2.1]octan-3-yl)chroman-3-yl)-1a,2,3,7b-tetrahydro-1H-cyclopropa[c][1,8]naphthyridine-6-carboxamide]	5.70 to 6.70
O=C(N[C@H]1COc2cc(N3CCNCC3)ccc2C1)c1cnn2cccnc12 [Example 466, (R)-N-(7-(piperazin-1-yl)chroman-3-yl)pyrazolo[1,5-a]pyrimidine-3-carboxamide]	< 5.70
Cc1ccn2ncc(C(=O)N[C@H]3COc4cc(N5CCNCC5)ccc4C3)c2c1 [Example 465, (R)-5-methyl-N-(7-(piperazin-1-yl)chroman-3-yl)pyrazolo[1,5-a]pyridine-3-carboxamide]	< 5.70
O=C(N[C@H]1COc2cc(N3CCNCC3)ccc2C1)c1cn2nc(Cl)ccc2n1 [Example 464, (R)-6-chloro-N-(7-(piperazin-1-yl)chroman-3-yl)imidazo[1,2-b]pyridazine-2-carboxamide]	< 5.70
Cc1ccc2c(N)c(C(=O)N[C@H]3CCc4cc(N5CCNCC5)c(F)c(F)c4C3)sc2n1 [Example 417, 3-amino-N-[(2S)-7,8-difluoro-6-(piperazin-1-yl)-1,2,3,4-tetrahydronaphthalen-2-yl]-6-methylthieno[2,3-b]pyridine-2-carboxamide]	5.70 to 6.70
Cc1ccc2c(N)c(C(=O)N[C@H]3COc4cc(N5CC6CNC[C@](C)(C5)O6)cc(F)c4C3)sc2n1 [Example 413, 3-amino-N-[(3R)-5-fluoro-7-[(1R)-1-methyl-9-oxa-3,7-diazabicyclo[3.3.1]nonan-3-yl]-3,4-dihydro-2H-1-benzopyran-3-yl]-6-methylthieno[2,3-b]pyridine-2-carboxamide]	7.30 to 9.00
Cc1cnc2c(N)c(C(=O)N[C@H]3CCc4cc(N5CC(C(=O)O)C5)ccc4C3)sc2n1 [Example 6-4, (S)-1-(6-(7-amino-3-methylthieno[2,3-b]pyrazine-6-carboxamido)-5,6,7,8-tetrahydronaphthalen-2-yl)azetidine-3-carboxylic acid]	5.70 to 6.70
Cc1ccc2c(N)c(C(=O)N[C@H]3CCc4nc(N5C[C@H](N)[C@@H](C(F)(F)F)C5)ccc4C3)sc2n1 [Example 363, 3-amino-N-[(6S)-2-[(3R,4S)-3-amino-4-(trifluoromethyl)pyrrolidin-1-yl]-5,6,7,8-tetrahydroquinolin-6-yl]-6-methylthieno[2,3-b]pyridine-2-carboxamide]	6.70 to 7.30
Cc1ccc2c(N)c(C(=O)N[C@H]3CCc4nc(N5C[C@H](N)[C@@]6(CCCO6)C5)ccc4C3)sc2n1 [Example 393, 3-amino-N-[(6S)-2-[(5R,9S)-9-amino-1-oxa-7-azaspiro[4.4]nonan-7-yl]-5,6,7,8-tetrahydroquinolin-6-yl]-6-methylthieno[2,3-b]pyridine-2-carboxamide]	6.70 to 7.30
Cc1ccc2c(N)c(C(=O)N[C@H]3CCc4nc(N5C[C@@H](N)[C@@]6(CCCO6)C5)ccc4C3)sc2n1 [Example 392, 3-amino-N-[(6S)-2-[(5R,9R)-9-amino-1-oxa-7-azaspiro[4.4]nonan-7-yl]-5,6,7,8-tetrahydroquinolin-6-yl]-6-methylthieno[2,3-b]pyridine-2-carboxamide]	5.70 to 6.70
O=C(N[C@H]1COc2cc(N3CCNCC3)ccc2C1)c1ccc(NCc2cccc(C(F)(F)F)c2)nc1 [Example 469, (R)-N-(7-(piperazin-1-yl)chroman-3-yl)-6-((3-(trifluoromethyl)benzyl)amino)nicotinamide]	6.70 to 7.30
Cc1ccc2c(N)c(C(=O)N[C@H]3COc4cc(N5CC[C@H](N)C5)ccc4C3)sc2n1 [Example 369, 3-amino-N-[(3R)-7-[(3S)-3-aminopyrrolidin-1-yl]-3,4-dihydro-2H-1-benzopyran-3-yl]-6-methylthieno[2,3-b]pyridine-2-carboxamide]	7.30 to 9.00
O=C(N[C@H]1COc2cc(N3CCNCC3)ccc2C1)c1ccc(NCc2cccnc2)nc1 [Example 468, (R)-N-(7-(piperazin-1-yl)chroman-3-yl)-6-((pyridin-3-ylmethyl)amino)nicotinamide]	5.70 to 6.70
O=C(N[C@H]1CCc2c(c(F)cc(N3CC4CCC(C3)N4)c2C(F)F)C1)c1cnc2c(c1)[C@@H]1C[C@@H]1CN2 (single isomer, unassigned) [Example 359]	< 5.70
Cc1ccc2c(N)c(C(=O)N[C@@H]3COc4c(cc(F)c(N5CCNCC5)c4F)C3)sc2n1 (single isomer, unassigned) [Example 3-18]	5.70 to 6.70
Cc1ccc2c(N)c(C(=O)N[C@H]3COc4cc(N5C[C@@H](N)CC56COC6)ccc4C3)sc2n1 (single isomer, unassigned) [Example 352]	7.30 to 9.00
O=C(N[C@H]1COc2cc(N3CCNCC3)ccc2C1)c1ccc(NCc2cccc(Cl)c2)nc1 [Example 467, (R)-6-((3-chlorobenzyl)amino)-N-(7-(piperazin-1-yl)chroman-3-yl)nicotinamide]	5.70 to 6.70
Cc1cnc2c(N)c(C(=O)N[C@@H]3CCc4cc(N5CC6CNCC(C5)O6)ccc4C3)sc2n1 [Example 450, N-((2R)-6-(9-oxa-3,7-diazabicyclo[3.3.1]nonan-3-yl)-1,2,3,4-tetrahydronaphthalen-2-yl)-7-amino-3-methylthieno[2,3-b]pyrazine-6-carboxamide]	5.70 to 6.70
